Measurements as given in patent publication US8545834B2, “G-substrate for the treatment and prevention of parkinson's disease” (The McLean Hospital Corporation, priority 2007, dated 2013).

Key:
A9 DA neurons = type: in vivo, rat
Description: Retrograde 6-OHDA lesioning within the striatum is a well-established method of creating progressive degeneration of A9 DA neurons. The loss of TH immunoreactivity reflects actual loss of DA neurons (Sauer, 1994).
The in vivo neuroprotective effects of G-substrate against 6-OHDA-induced toxicity was examined by injecting 6-OHDA into the corpus striatum of rats which previously had either G-substrate or control genes (empty vector or YFP) delivered to the midbrain using the lentivirus as described above. 6-OHDA induced approximately an 80% loss of TH-positive neurons in the midbrain (FIG. 12Q) and complete loss of TH immunoreactivity in the striatum (data not shown). The severity of the striatal insult in this paradigm precluded our ability to usefully measure protection of striatal nerve terminals. […] Furthermore, most of the surviving TH-positive neurons in lenti G-substrate-transduced rats were strongly G-substrate-positive (FIGS. 12G-12L).
Rats received two 2.75 μl stereotaxic injections of either lenti-empty vector+lenti-eGFP (n=19), lenti-G substrate+lenti-eGFP (n=19), or lenti-YFP (n=14) and delivered at a rate of 0.2 μl/min using microinfusion pumps (Stoelting Co, Wood Dale, Ill.) with 10 min wait times after each injection. Lenti-eGFP was added to each condition, excluding the YFP condition, to serve as an exogenous marker for surgical targeting (0.5 μl of the total 5.5 μl A volume). SN injection coordinates were as follows: site 1: AP −4.8, ML −2.0, DV −7.2; site 2: AP −5.5, ML −1.8, DV −7.2; and tooth bar set at −3.3. Virus titers (p24) were as follows: G substrate, 60 ng/μl; empty vector, 60 ng/μl; eGFP, 83 ng/μl; and YFP, 60 ng/μl.
Two weeks following lentiviral injection, animals (lenti-empty vector+lenti-eGFP (n=9), lenti-G substrate+lenti-eGFP (n=9), or lenti-YFP (n=14)) received three 2.5 μl stereotaxic injections of 3.0 μg/μl 6-OHDA (total dose=22.5 μg 6-OHDA) delivered at a rate of 0.5 μl/min and 5 min wait times after each injection. Striatum injection coordinates were as follows: site 1: AP +1.3, ML −2.8, DV −4.5; site 2: AP +0.2, ML, −3.0, DV −5.0; site 3: AP −0.6, ML −4.0, DV −5.5; and tooth bar set at −3.3. The lesion was allowed to progress for 3 weeks after which animals were sacrificed for post mortem analyses.
Brains were cut frozen in the coronal plane at a thickness of 40 μm on a sliding microtome and six series of sections were stored in cryoprotectant. Two full series of sections were processed for visualization of tyrosine hydroxylase (TH) via the biotin-labeled antibody procedure. Briefly, following several washes in a PBS solution containing 0.01% Triton X-100 (PBS-T), endogenous peroxidase was quenched in a 3% hydrogen peroxide solution and background staining was then inhibited in a 5% normal goat serum solution. […]

PP2A = PP2A activity assay (immunoprecipitated PP2A, phosphopeptide, Malachite Green); type: cell-based, human; details: BE(2)-M17 cells exposed to 50 μM 6-OHDA for 2 hours; versus control cells
Experimental: PP2A activity was measured in control BE(2)-M17 cells at various incubation times (t=0, 1, 2, 5 and 8 hr) after exposure to 50 μM 6-OHDA. […] Control, wild-type, and T123A G-substrate-expressing cells were then exposed to 50 μM 6-OHDA for 2 hours before measurement of PP2A activity.
PP2A activity was measured using a non-radioactive kit according to the manufacturer's instruction (Upstate Biotechnologies, Lake Placid, N.Y.). After 50 μM 6-OHDA exposure with various times, cells were harvested in 20 mM imidazole-HCl, 2 mM EDTA, 2 mM EGTA, pH7 with a protease inhibitor cocktail (Sigma). Protein concentrations of the lysates were measured using BCA assay (Pierce) and 500 μg of protein was immunoprecipitated using an anti-PP2A catalytic subunit antibody and protein A-Sepharose beads. Immunoprecipitated PP2A was then incubated with phosphopeptide (K-R-pT-I-R-R (SEQ ID NO: 8)) for 10 min at 37° C. Dephosphorylation of the phosphopeptide was assayed spectrophotometrically at 650 nm using Malachite Green.

## G-substrate: human wild type G-substrate (SEQ ID NO.: 1) overexpressed from a lentiviral vector
A9 DA neurons; 6-OHDA-lesioned rats
  DA neuronal protection: ~10%
A9 DA neurons; worked out from 22.3% transduction and ˜10% protection
  transduced DA neurons protected from 6-OHDA-induced toxicity: approximately 50%
PP2A
  PP2A activity in G-substrate-expressing cells: significant reduction
